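Dose response: 5 concentrations. Exposure: 48 h. Format: 96-well plates. Endpoint: linear interpolation; highest concentration if not reached. At the TGI there is no net growth.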
Columns and labels:
Assay in all cases: NCI-60 cell line screen, 48 h
ACHN renal = system: ACHN renal
DU-145 prostate = system: DU-145 prostate
HS 578T breast = system: HS 578T breast
IGROV1 ovarian = system: IGROV1 ovarian
MALME-3M melanoma = system: MALME-3M melanoma
NCI-H522 lung = system: NCI-H522 lung
SF-268 CNS = system: SF-268 CNS
UACC-257 melanoma = system: UACC-257 melanoma
UACC-62 melanoma = system: UACC-62 melanoma
RXF 393 renal = system: RXF 393 renal
HL-60(TB) leukemia = system: HL-60(TB) leukemia

| Structure (SMILES) | TGI (ACHN renal) | TGI (DU-145 prostate) | TGI (HS 578T breast) | TGI (IGROV1 ovarian) | TGI (MALME-3M melanoma) | TGI (NCI-H522 lung) | TGI (SF-268 CNS) | TGI (UACC-257 melanoma) | TGI (UACC-62 melanoma) | TGI (RXF 393 renal) | TGI (HL-60(TB) leukemia) |
| --- | --- | --- | --- | --- | --- | --- | --- | --- | --- | --- | --- |
| O=C1CCC2(c3ccc(F)cc3)Nc3ncncc3N12 (stereo not drawn) | > 10 µM | > 10 µM | > 10 µM | > 10 µM | > 10 µM | > 10 µM | > 10 µM | > 10 µM | > 10 µM | – | – |
| CCOC(=O)c1cc(C2(OC)CCN(Cc3ccccc3)C2=O)c(-c2cc(C)no2)[nH]1 (stereo not drawn) | > 100 µM | > 100 µM | > 100 µM | > 100 µM | > 100 µM | > 100 µM | > 100 µM | > 100 µM | > 100 µM | > 100 µM | – |
| Cc1ccc(C(=O)Nc2ccc(CP(=O)(O)O)cc2)cc1NC(=O)Nc1cc(C(=O)Nc2ccc(CP(=O)(O)O)cc2)ccc1C | – | > 100 µM | > 100 µM | > 100 µM | > 100 µM | > 100 µM | > 100 µM | > 100 µM | > 100 µM | > 100 µM | > 100 µM |
| N#C/C(N)=C(\C#N)N=CNc1ccccc1N | > 100 µM | > 100 µM | > 100 µM | > 100 µM | > 100 µM | > 100 µM | > 100 µM | > 100 µM | > 100 µM | – | > 100 µM |
| Cc1c(C)c2ccc(O)cc2[nH]c1=O | > 100 µM | > 100 µM | – | > 100 µM | – | – | – | > 100 µM | > 100 µM | > 100 µM | – |
| CC(C)[C@H](NC(=O)[C@@H](O)[C@H](N)Cc1ccccc1)C(=O)N[C@@H](Cc1ccccc1)C(=O)O | > 100 µM | > 100 µM | > 100 µM | > 100 µM | > 100 µM | > 100 µM | > 100 µM | > 100 µM | > 100 µM | – | > 100 µM |
| Nc1nc(Cl)nc2c1ncn2C1CCC(CO)O1 (stereo not drawn) | – | > 100 µM | > 100 µM | > 100 µM | > 100 µM | – | – | > 100 µM | > 100 µM | > 100 µM | – |
| Cc1cc2nc3c(C#N)c(-c4ccccc4)cc(Nc4cccc(C(F)(F)F)c4)n3c2cc1C | 28.5 µM | – | – | – | > 100 µM | 30.1 µM | 61.2 µM | 54.3 µM | – | 22.9 µM | – |
| C=C1C(=O)O[C@H]2[C@H]3O[C@@H](C[C@@H]12)[C@](C)(O)CCCC(C)=CCC[C@H]3C | 21.7 µM | 39.6 µM | 29.2 µM | 5.05 µM | – | 17.3 µM | 20.7 µM | 22.7 µM | 22.8 µM | 20.3 µM | – |
| CC(C)(Cc1ccccc1)Cc1cc(O)ccc1O | 66.1 µM | > 100 µM | – | > 100 µM | 33.2 µM | 17.1 µM | 35.7 µM | 29.5 µM | 61.8 µM | 28.9 µM | 4.8 µM |
| Cn1c(=O)c2c(nc3sc4ncccc4c(=O)n32)n(C)c1=O | > 100 µM | > 100 µM | > 100 µM | > 100 µM | – | – | > 100 µM | > 100 µM | > 100 µM | > 100 µM | > 100 µM |
| CC[C@]12C=CCN3CCC4(c5cc(N=Nc6ccc([N+](=O)[O-])cc6)c(OC)cc5N(C)[C@H]4[C@@](O)(C(=O)OC)[C@@H]1OC(C)=O)[C@@H]32 (stereo partly drawn) | 67.8 µM | > 100 µM | 77.8 µM | 33.2 µM | 36.9 µM | – | > 100 µM | 56.5 µM | > 100 µM | 35.6 µM | 28.1 µM |
| CCC1CCN=C(Cn2cc(C)c(=O)[nH]c2=O)N1 (stereo not drawn) | > 100 µM | > 100 µM | > 100 µM | > 100 µM | > 100 µM | > 100 µM | > 100 µM | > 100 µM | > 100 µM | > 100 µM | – |
| N=c1c2ccccc2nc2oc3ccc(Cl)cc3n12 | 28.4 µM | – | 20.3 µM | 69.8 µM | 40.1 µM | 53.1 µM | > 100 µM | > 100 µM | > 100 µM | 26.1 µM | – |
| CCOC(=O)c1cc(Cl)ccc1OC(N)=O | – | – | – | > 100 µM | – | – | > 100 µM | > 100 µM | > 100 µM | > 100 µM | > 100 µM |
| COc1cc(C2SC(N)=Nc3c2c(C)nn3C(=O)Cc2ccccc2)ccc1O (stereo not drawn) | > 100 µM | > 100 µM | > 100 µM | > 100 µM | > 100 µM | > 100 µM | > 100 µM | > 100 µM | > 100 µM | – | > 100 µM |
| COc1ccc(-n2nnnc2C2(Nc3ccccc3)CCN(Cc3ccccc3)CC2)cc1 | > 100 µM | > 100 µM | 28.8 µM | 41.2 µM | 27.3 µM | – | – | 28.9 µM | 31.1 µM | 33.8 µM | 8.14 µM |
| C/C(=C\[C@H]1C[C@@H]([C@@H]2CC[C@]34C[C@]23C=C[C@@H]2[C@@]3(C)CC=C5C[C@@H](c6ccccc6)OC[C@]5(C)[C@@H]3C[C@@H](O)[C@]24C)C(=O)O1)CO | 34.8 µM | > 67.9 µM | > 72.2 µM | 20.5 µM | 82.5 µM | 89.3 µM | > 70.1 µM | 30.7 µM | > 71.2 µM | > 100 µM | – |
| CCCC[Si](CCCC)(CCCC)O[C@@H](/C=C/C(=O)OCC)[C@H](Cc1ccccc1)O[Si](CCCC)(CCCC)CCCC | > 100 µM | > 100 µM | > 100 µM | > 100 µM | > 100 µM | > 100 µM | > 100 µM | > 100 µM | > 100 µM | > 100 µM | – |
| O=C1C(c2c(O)[nH]c3ccc(S(=O)(=O)N(CCO)CCO)cc23)=Nc2ccccc21 | > 100 µM | 72.3 µM | > 100 µM | > 100 µM | > 100 µM | > 100 µM | > 100 µM | > 100 µM | > 100 µM | 6.53 µM | – |
| Cc1ccc(S(=O)(=O)N/N=C2/CC[C@H](C(C)(C)C)C[C@@H]2C)cc1 | 30.3 µM | 30.3 µM | 45.1 µM | 30 µM | 29.8 µM | – | – | 27 µM | 31.4 µM | – | > 100 µM |

From PubChem BioAssay (NCI)
